Consider 5 molecules from US5162302A, “Endocrine manipulation to improve body composition of poultry” (University of Delaware, priority 1990, dated 1992).

Data set [1] can be described thus: Three daily intravenous injections of GRF and dietary T3: growth, feed efficiency, body composition (Example 2). The data set is classed as in vivo, broiler chickens. From the text: Bird management. Day-old broiler cockerels (Ross X Arbor Acre strain) were obtained from a commercial hatchery (Longnecker Hatchery, Elizabethtown, PA) and randomly assigned in groups of four birds to pens in a heated-battery brooder. Chicks were provided with a commercial broiler-starter ration (Pennfield Corp., Lancaster, PA), containing 3100 kcal metabolizable energy/kg feed and 23% crude protein, and water ad libitum. At 3 weeks of age, birds were transferred to wire pens held in a controlled-environment room. From 3 to 7 weeks of age, birds were maintained under a 20L:4D light-dark cycle at 21° C. and continuously provided with water and a commercial broiler-finisher ration containing 3250 kcal metabolizable energy/kg feed and 20% crude protein. Broiler cockerels were given three daily intravenous injections of either buffer (0.1M phosphate buffer, pH 7.0; BC) or GRF dissloved in buffer (25 μg/kg body weight) at 0800, 1600, and 2400 hr.
Dietary T3 and GRF Treatments. Four treatments were randomly assigned to pens in a randomized-complete-block design with three replicate pens per treatment. […] All birds were weighted at three day intervals to adjust the daily GRF dosage. Recombinant-derived human growth hormone-releasing factor (rhGRF1-44) was obtained from Pitman-Moore, Inc. (Terre Haute, IN).
The average daily gain (ADG), average daily feed consuption (ADFC) and the gain-to-feed ratio (GTF) were determined for the two week period (5 to 7 weeks of age). At the end of the experiment (7 weeks of age), each bird was killed to obtain the final body, abdominal fat and liver weights. Carcasses were frozen for determination of body composition as described in Example 1.
Statistical analyses. A randomized-complete-block design was used in which the four treatments were replicated in three pens. The growth data were analyzed with the pen as the experimental unit, since feed comsumption was determined for each pen of four birds. Significant differences (P≤0.05) due to the main effect of treatment were determined by Fisher's Least Significant Difference test.

Data set [2] in a line: Dietary T3 in finishing feed, dose-response: plasma T3, muscle protein turnover, fat, growth, hormones.
The nature of data set [3]: Three daily intramuscular injections of GRF and dietary T3: growth, feed efficiency, body composition (Example 1). The data set is classed as in vivo, broiler chickens. How it is done: Bird management. One day-old broiler cockerels (Ross x Arbor acre) were obtained from a commercial hatchery (Perdue Hatchery, Salisburg, MD). Five birds were randomly assigned to each of 24 pens during the first three weeks. Birds were housed in a Petersime battery-brooder and maintained in a environmentally controlled room on a 20L:4D light/dark cycle. The temperature was held at 33° C. for the first week and reduced 3° C. at weekly intervals. During this period, the chicks were provided with commercial starter ration (3100 kcal ME/kg and 22% crude protein) and water ad libitum.
At 3 weeks-of-age, four birds per pen were moved to wire cages. From 3 to 4 weeks of age, birds were fed a commercial broiler grower/finisher ration containing 19% crude protein and 3200 kcal metabolizable energy/kg. At 4 weeks of age, birds were fed a special high-protein ration that contained 25% crude protein and 3250 kcal ME/kg feed (See Table 1). […] During the experimental period (5 to 7 weeks of age), individual body weights and feed consumption were determined at weekly intervals for calculation of average daily gain (ADG), average daily feed consumption (ADFC) and gain-to-feed ratio (GTF).
Hormone treatments. […] Synthetic human pancreatic growth releasing factor (hpGRF1-44) was obtained from Pitman-Moore, Inc. (Terre Haute, IN). […] Begining at 35 days of age, broiler cockerels were given three daily intramuscular injections of buffer (0.05M sodium acetate, pH 5.0) or GRF dissolved in buffer (10 μg/kg body weight) each day at 0800, 1600, and 2400 hr. Each bird was weighed a 3 day intervals to adjust GRF dosage.
At 49 days of age, chickens were starved for 24 hours and killed for determination of final body, abdominal fat pad, and liver weights. Carcasses from one-half of the birds in each pen (2 birds/pen) were frozen for determination of body composition by proximate analysis. Each frozen carcass, including the liver and abdominal fat, was ground twice in meat grinder fitted with a one-quarter inch dye (Biro Model 5, Biro Mfg. Co., Marblehead, OH). Aliquots of the ground meat were dried at 80° C. for moisture determination. Dried samples were analyzed for protein by macro-Kjeldahl, fat by ether extraction, and ash contents according to established analytical procedures. Body composition data are presented as a percent of final body weight at 7 weeks of age.
Statistical analyses. All data were analyzed with the pen as the experimental unit since dietary treatments were applied to the pen and feed consumption was determined for each pen. Least squares regression analysis was used to test for effects of treatments on ADG, ADFC, GTF, body weight and body composition. Significant differences (P<0.05) among treatments were determined by Fisher's least significant difference test.

The conditions of data set [4]: 0.25 to 1 ppm in diet throughout the entire growth cycle; cited from earlier work.
The conditions of data set [5]: 1 to 10 μg TRH/day i.v. from 4 to 6 or 8 weeks-of-age; cited from earlier work.
For data set [6] the following is noted: TRH 1 or 10 μg/kg/day, GRF 10 μg/kg/day i.v., 21 days, cited from earlier work.
Data set [7] can be described thus: Protein:fat ratio of broiler chickens under hormone treatments. The data set is classed as in vivo. To be noted: at the doses tested.
The conditions of data set [8]: induced hypothyroid state; cited from earlier work.
For data set [9] the following is noted: finishing pigs, injection; cited from earlier work.
Where [10] appears, read: 5 to 7 weeks of age, T3 0.25 ppm, GRF 25 μg/kg i.v. 3x daily, mean ± SEM of three pens.
[11] abbreviates: 7 weeks of age, i.v. GRF, mean ± SEM of twelve cockerels.
Where [12] appears, read: 7 weeks of age, i.v. GRF, twelve cockerels.
Setting [13] is: 0.25 ppm T3, compared to the control group.
Where [14] appears, read: plasma thyroid hormone bioactivity 360-1200% of normal.
Where [15] appears, read: 5 to 7 weeks of age, T3 0.25 ppm, GRF 10 μg/kg i.m. 3x daily, mean ± SEM of four pens.
Setting [16] is: 7 weeks of age, i.m. GRF, four pens (2 birds/pen).
Where [17] appears, read: 7 weeks of age, i.m. GRF, mean ± SEM of four pens.

Where two headings read alike, the source gives them in different places.

`N[C@@H](Cc1cc(I)c(Oc2ccc(O)c(I)c2)c(I)c1)C(=O)O` [T3, 3,3',5-triiodo-L-thyronine]: the “ADG (average daily weight gain)” value in data set [1] (5 to 7 weeks of age, T3 0.25 ppm in feed, GRF 25 μg/kg i.v. three times daily, mean ± SEM of three pens) is listed as 70.7 ± 5.3. In data set [1] (setting [10]), the “ADFC (average daily feed consumption)” value came out at 157.0 ± 7.2 and the “GTF (gain-to-feed ratio)” value came out at 0.448 ± 0.021. In addition, in [1] (7 weeks of age, vs control), the “Increase of body water content” value is 2% and the “Reduction of body fat content” value came out at 10%. Further, in data set [1] (setting [11]), the “Final body weight BW” value was determined as 2.82 ± 0.06 kg, the “Relative weight of abdominal fat” value turned out to be 1.54 ± 0.14 % BW and the “Relative weight of liver” value was found to be 2.06 ± 0.05 % BW. Moreover, in [1] (setting [12]), the “Body composition: ash” value turned out to be 2.45 ± 0.04 % BW, the “Body composition: fat” value was 11.5 ± 0.64 % BW, the “Body composition: protein” value is given as 18.8 ± 0.19 % BW and the “Body composition: water” value was found to be 67.0 ± 0.50 % BW. For the same molecule, the “Reduction of abdominal fat weight” value in [1] (compared to the CF+BI group) was 20%. Besides, the “Effect on ADG, ADFC or the GTF ratio” value in data set [1] (dietary T3 or daily i.v. GRF alone, or in combination) is “did not significantly affect”. Moreover, the “Effect upon weight gain” value in [2] (0.1 ppm T3 in finishing feed) is “no significant adverse effect”. Further, in data set [2] (0.25 ppm T3), the “Increase of protein accretion in breast and leg muscle” value is on record as 45-88%; the “Reduction of abdominal fat weight” value was found to be 22%. In [2] (setting [13]), the “Increase of FAR of leg muscle” value is reported as 45% and the “Increase of FAR of pectoralis major (breast muscle)” value is 88%. Moreover, in [2] (0.25 ppm T3 in feed), the “Effect on growth rate” value was “virtually no statistically significant adverse effect”, the “Plasma T3 level” value turned out to be 2.7 ± 0.2 ng/mL and the “Plasma T3 level (control group = 100% of normal)” value was ~ 208%. Also, the “Increase of rate of protein synthesis in the leg muscle” value in data set [2] (0.25 to 4 ppm of feed, p<0.05) is recorded as “at least 49%”. In data set [2] (1 ppm T3 in feed), the “Plasma T3 level” value was determined as 4.5 ± 0.8 ng/mL and the “Plasma T3 level (control group = 100% of normal)” value was ~ 346%. In addition, the “Effect upon weight gain” value in data set [2] (1 ppm T3 in finishing feed) is “some deviation from normal weight gain”. Further, in data set [2] (4 ppm T3 in feed), the “Plasma T3 level” value was found to be 16.3 ± 2.6 ng/mL and the “Plasma T3 level (control group = 100% of normal)” value was ~ 125%. Also, the “Increase of fractional degradation rate of breast muscle” value in data set [2] (4 ppm of T3) is listed as 116%. The “Increase of fractional synthesis rate (FSR) of the pectoralis major (breast) muscle” value in data set [2] (4 ppm of T3, p<0.05) is on record as 56%. The “Fractional Accretion Rate (FAR) in the pectoralis major (breast) muscle” value in data set [2] (T3 doses in the 1 to 4 ppm range) is “affected negatively”. Besides, the “Plasma GH levels” value in data set [2] (dietary T3 during the finishing phase) is listed as “decrease”. For the same molecule, in data set [2] (dietary T3 treatment alone), the Glucagon secretion entry is on record as “increased” and the Insulin secretion result is given as “depresses”. In data set [2] (lower doses of T3 (0.25 to 1 ppm)), the “Protein synthesis rate in breast muscle” value was “only a slight effect”. Moreover, in data set [2] (setting [14]), the “Depression of body weight gain” value is at most 57% and the “Depression of feed consumption” value is at most 35%. Further, the “ADG (average daily weight gain)” value in data set [3] (5 to 7 weeks of age, T3 0.25 ppm in feed, GRF 10 μg/kg i.m. three times daily, 25% protein ration, mean ± SEM of four pens) was 76.5 ± 3.0. In [3] (setting [15]), the “ADFC (average daily feed consumption)” value was 185.1 ± 7.1 and the “GTF (gain-to-feed ratio)” value stood at 0.414 ± 0.01. Further, in [3] (7-week-old chickens, compared to the CF+BI group), the “Reduction of total body fat content” value is 10%. Also, the “Final body weight BW” value in data set [3] (7 weeks of age, T3 0.25 ppm, GRF 10 μg/kg i.m. 3x daily, mean ± SEM of four pens) was 2.75 ± 0.05 kg. In addition, in data set [3] (setting [16]), the “Body composition: ash” value is 2.24 ± 0.08 % BW, the “Body composition: fat” value worked out at 10.0 ± 0.78 % BW, the “Body composition: protein” value is on record as 17.1 ± 0.26 % BW and the “Body composition: water” value is recorded as 67.6 ± 0.70 % BW. In data set [3] (setting [17]), the “Relative weight of abdominal fat pad” value came out at 1.12 ± 0.11 % BW and the “Relative weight of liver” value came out at 1.99 ± 0.09 % BW. Moreover, in [3] (compared to the CF+BC group, P<0.05), the “Reduction of abdominal fat weight” value turned out to be 31%. Moreover, the “Effect on ADG, ADFC or GTF” value in data set [3] (dietary T3 or daily i.m. GRF) is “no effect”. The “Growth performance (body weight gain and feed efficiency)” value in data set [4] is “reduced body weight gain and feed efficiency”.

As for `NC(=O)[C@@H]1CCCN1C(=O)[C@H](Cc1c[nH]cn1)NC(=O)[C@@H]1CCC(=O)N1` [TRH, pyro-L-Glu-L-His-L-Pro-NH2], in [5], the Growth rate entry is given as “capable of increasing the growth rate”. Moreover, the “Plasma GH levels” value in [6] was “elevated”. Also, the “Growth rate and feed efficiency” value in data set [6] (alone or in combination) is “failed to stimulate growth rate or improve feed efficiency”. Moreover, in data set [7], the “Effect on protein:fat ratio” value is reported as “decrease”.

With `CCCc1cc(=O)[nH]c(=S)[nH]1` [propylthiouracil], in data set [8], the Body fat result is recorded as “increased accumulation of body fat” and the Plasma insulin levels result is on record as “elevated”. Moreover, the “Effect on protein:fat ratio” value in [7] is “decrease”.

B1: GH: growth hormone (e.g. ncGH, natural chicken GH) (protein, UniProt P08998 26-216, looked up)
Somatotropin: TFPAMPLSNLFANAVLRAQHLHLLAAETYKEFERTYIPEDQRYTNKNSQAAFCYSETIPAPTGKDDAQQKSDMELLRFSLVLIQSWLTPVQYLSKVFTNNLVFGTSDRVFEKLKDLEEGIQALMRELEDRSPRGPQLLRPTYDKFDIHLRNEDALLKNYGLLSCFKKDLHKVETYLKVMKCRRFGESNCTI
In the case of B1, the “Effect on protein:fat ratio” value in data set [7] is “decrease”.

B2: pGH: purified porcine growth hormone (protein, UniProt P01248 27-216, looked up)
Somatotropin: FPAMPLSSLFANAVLRAQHLHQLAADTYKEFERAYIPEGQRYSIQNAQAAFCFSETIPAPTGKDEAQQRSDVELLRFSLLLIQSWLGPVQFLSRVFTNSLVFGTSDRVYEKLKDLEEGIQALMRELEDGSPRAGQILKQTYDKFDTNLRSDDALLKNYGLLSCFKKDLHKAETYLRVMKCRRFVESSCAF
For the molecule B2, in data set [9], the “Improvement of feed conversion” value is on record as 7-19%, the “Increase of growth rate” value is listed as 10-14%, the “Increase of muscle mass” value is recorded as 24-36% and the “Reduction of carcass fat content” value is given as 18-25%.
